According to BindingDB's records for patent US10934285 (Novartis, 2021):

Biological target: T1, Tyrosine-protein phosphatase non-receptor type 11 (Homo sapiens, UniProt Q06124)
T1 sequence (Q06124 whole entry): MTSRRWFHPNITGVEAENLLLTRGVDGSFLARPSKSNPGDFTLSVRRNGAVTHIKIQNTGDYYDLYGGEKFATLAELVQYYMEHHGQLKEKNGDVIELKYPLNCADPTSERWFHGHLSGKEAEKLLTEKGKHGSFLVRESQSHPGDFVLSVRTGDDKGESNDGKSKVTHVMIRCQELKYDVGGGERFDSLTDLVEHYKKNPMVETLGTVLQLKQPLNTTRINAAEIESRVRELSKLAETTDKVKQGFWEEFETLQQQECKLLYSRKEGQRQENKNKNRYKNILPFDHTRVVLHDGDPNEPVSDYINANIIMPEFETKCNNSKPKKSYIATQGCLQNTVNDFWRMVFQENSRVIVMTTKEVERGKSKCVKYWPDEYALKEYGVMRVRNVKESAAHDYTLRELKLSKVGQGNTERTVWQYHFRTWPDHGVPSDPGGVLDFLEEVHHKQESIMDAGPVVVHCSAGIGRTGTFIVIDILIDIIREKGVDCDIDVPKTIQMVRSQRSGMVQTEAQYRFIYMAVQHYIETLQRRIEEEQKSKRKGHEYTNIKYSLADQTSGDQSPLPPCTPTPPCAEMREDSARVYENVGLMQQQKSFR
Experiment: Inhibition Assay
Procedure: After 30-60 minutes incubation at 25° C., the surrogate substrate DiFMUP (Invitrogen, cat #D6567) was added to the reaction and incubated at 25° C. for 30 minutes. The reaction was then quenched by the addition of 5 μl of a 160 μM solution of bpV(Phen) (Enzo Life Sciences cat #ALX-270-204). The fluorescence signal was monitored using a microplate reader (Envision, Perki-Elmer) using excitation and emission wavelengths of 340 nm and 450 nm, respectively. The inhibitor dose response curves were analyzed using normalized IC50 regression curve fitting with control based normalization.

Row | IC50 | SMILES
1 | 5380 nM | CN(c1cnc(Sc2cccc(NC(=O)c3c(O)nc4n(c3=O)CCCC4)c2Cl)c(N)n1)C1CC(C)(C)NC(C)(C)C1 [US10934285, Example 21]
2 | 15 nM | CC1(CN)CCN(c2nnc(Sc3cccc(NC(=O)c4c(O)n5c(ccc6ccccc65)nc4=O)c3Cl)c(N)n2)CC1 [US10934285, Example 38]
